# According to patent publication US7595183B2, “Cathepsins L-like cysteine protease derived from northern shrimp (Pandalus eous)” (Nichirei Corporation, priority 2002, dated 2009):
# Peptide text beside a SMILES is read from it. * marks the point of attachment. Cbz = O=C(OCc1ccccc1)*; CHN2 = [N-]=[N+]=C*; tBu = CC(C)(C)*
# Test system: northern shrimp cathepsin L1
# Experiment: Effects of inhibitors on northern shrimp cathepsin L1, residual activity with Z-Phe-Arg-MCA
# Type: biochemical, northern shrimp (Pandalus eous)
# Conditions: for Residual activity (%): enzyme 1 nM, Z-Phe-Arg-MCA 100 μM
# Protocol: Enzymatic activity was assayed at 25° C. using intramolecularly quenched MCA (methyl coumarylamide) substrates in a buffer containing 100 mM sodium acetate, pH 6.0, 100 mM NaCl, 2 mM DTT, 2 mM EDTA and 0.01% Brij-35. The substrate solution was prepared in dimethyl sulfoxide at a concentration of 20 mM. Hydrolysis was initiated by adding the enzyme diluted with the same buffer. Enzymatic activity was determined by measuring fluorescence intensity of the released 7-amino-4-methylcoumarin (AMC) at an excitation wavelength of 380 nm and an emission wavelength of 460 nm.
# Enzyme solution was pretreated with any one of inhibitors E64 (L-trans-epoxysuccinyl-leucyl-agmatine), Z-Phe-Phe-CHN2, Z-Phe-Tyr(t-Bu)-CHN2, leupeptin, antipain, PMSF (phenylmethylsulfonyl fluoride), and 1,10-phenanthroline in a buffer (containing 100 mM sodium acetate, 2 mM DTT, 2 mM EDTA, and 0.05% Triton X-100). Residual enzymatic activity was then measured with fluorescent substrate Z-Phe-Arg-MCA. The final concentrations of the enzymes and the substrate were 1 nM and 100 μM, respectively. The residual enzymatic activity was measured with the method described above.
Compound,Inhibition of northern shrimp cathepsin L1 (in words),Residual activity (%) (inhibitor 0.1 μM),Residual activity (%) (inhibitor 1 μM),Residual activity (%) (inhibitor 1 mM),Residual activity (%) (inhibitor 10 mM),Residual activity (%) (inhibitor 10 μM)
"CC(C)C[C@H](NC(=O)[C@H]1O[C@@H]1C(=O)O)C(=O)NCCCCN=C(N)N (relative stereo) [E64, L-trans-epoxysuccinyl-leucyl-agmatine]",strongly inhibited,0%,0%,,,
"c1cnc2c(c1)ccc1cccnc12 [1,10-Phenanthroline, 1,10-phenanthroline]",,,,99%,98%,
"CC(=O)N[C@@H](CC(C)C)C(=O)N[C@@H](CC(C)C)C(=O)N[C@H](C=O)CCCNC(=N)N [Leupeptin, leupeptin]",strongly inhibited,,0%,,,0%
"O=S(=O)(F)Cc1ccccc1 [PMSF, phenylmethylsulfonyl fluoride]",,,,100%,100%,
[N-]=[N+]=CC(=O)[C@H](Cc1ccccc1)NC(=O)[C@H](Cc1ccccc1)NC(=O)OCc1ccccc1 [Z-Phe-Phe-CHN2] (Cbz-Phe-Phe-CHN2),did not inhibit the present enzyme activity so much,,78%,,,55%
CC(C)(C)Oc1ccc(C[C@H](NC(=O)[C@H](Cc2ccccc2)NC(=O)OCc2ccccc2)C(=O)C=[N+]=[N-])cc1 [Z-Phe-Tyr(t-Bu)-CHN2] (Cbz-Phe-Tyr(tBu)-CHN2),did not inhibit the present enzyme activity so much,,94%,,,86%
